Earlier results, collected in EP2343054A1, “Pellets and microparticles of pravastatin sodium and a process of making them” (LEK Pharmaceuticals d.d., priority 2010, dated 2011).

Key:
[1] = pH 3 or less, as found in the stomach
[2] = pH of 7.0

| stability at low pH [1] | partition coefficient (octanol/water) [2] | average oral absorption | absolute bioavailability (oral) | SMILES |
| --- | --- | --- | --- | --- |
| very unstable | 0.23 |  |  | CC[C@H](C)C(=O)O[C@H]1C[C@H](O)C=C2C=C[C@H](C)[C@H](CC[C@@H](O)C[C@@H](O)CC(=O)O)[C@H]21 [Pravastatin sodium] |
|  |  | 34% | 17% | CC[C@H](C)C(=O)O[C@H]1C[C@H](O)C=C2C=C[C@H](C)[C@H](CC[C@@H](O)C[C@@H](O)CC(=O)O)[C@H]21 [pravastatin, (+)-(3R, 5R) -3,5-dihydroxy-7-[(1 S, 2S, 6S, 8S, 8aR)-6-hydroxy-2-methyl-8-[(S)-2-methylbutyryloxy]-1,2,6,7,8,8a-hexahydro-1-naphthyl] heptanoate] |
